Reference: ChEMBL document CHEMBL1201862, “PubChem BioAssay data set” (2004)
Calls of active or inactive are those of the source.

Columns and labels:
[1] = tested on: Streptococcus sp. 'group A'; experiment: Streptococcus pyogenes SK(-)GAS viability under kanamycin – luminescence, BacTiterGlo, confirmation, counter-screen for streptokinase expression inhibitor project, dose response (AID 1900); type: functional, organism-based
[2] = target: T1, Small ubiquitin-related modifier 1 (Homo sapiens, UniProt P63165); experiment: SUMO1 protein-protein binding blockers, potency – biochemical, FRET, dose response (AID 624383); type: functional; conditions: read-out: IC50_Mean
T1 sequence (P63165 whole entry): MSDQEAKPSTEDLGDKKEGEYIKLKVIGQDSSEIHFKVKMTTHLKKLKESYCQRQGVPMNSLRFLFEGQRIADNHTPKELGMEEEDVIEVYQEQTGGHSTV

[3] = target: T1, Small ubiquitin-related modifier 1; experiment: SUMO1 protein interaction blockers, potency – biochemical, fluorescence polarization, uHTS hits, dose response (AID 624382); type: functional; conditions: read-out: IC50_Mean
Streptococcus = experiment: GAS UMAA2166 growth inhibition – luminescence, BacTiterGlo, counter-screen for streptokinase expression inhibitor project, dose response (AID 1915); type: functional, organism-based;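 also: potency for reduction of bacterial viability or growth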
[4] = target: T2, Probable nicotinate-nucleotide adenylyltransferase (Staphylococcus aureus (strain N315), UniProt P65502); type: functional, Staphylococcus aureus subsp. aureus N315;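 as to IC50 Mean: confirmatory dose-response retesting of NadD inhibitor hits first found in an ultra-high-throughput screen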
T2 sequence (P65502 whole entry): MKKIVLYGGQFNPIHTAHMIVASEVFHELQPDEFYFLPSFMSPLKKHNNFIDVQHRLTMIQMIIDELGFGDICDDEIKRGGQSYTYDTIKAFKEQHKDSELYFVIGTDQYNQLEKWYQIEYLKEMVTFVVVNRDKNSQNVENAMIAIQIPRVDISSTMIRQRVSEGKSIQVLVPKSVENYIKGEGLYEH

[5] = target: Dual specificity tyrosine-phosphorylation-regulated kinase 1A (Rattus norvegicus, UniProt Q63470); type: biochemical, Homo sapiens
[6] = target: DNA (cytosine-5)-methyltransferase 1 (Homo sapiens, UniProt P26358); experiment: inhibition of DNA methylation by DNMT1 – biochemical, fluorescent molecular beacon, confirmation (AID 602386); type: functional
Chain of DNA (cytosine-5)-methyltransferase 1 (P26358 whole entry): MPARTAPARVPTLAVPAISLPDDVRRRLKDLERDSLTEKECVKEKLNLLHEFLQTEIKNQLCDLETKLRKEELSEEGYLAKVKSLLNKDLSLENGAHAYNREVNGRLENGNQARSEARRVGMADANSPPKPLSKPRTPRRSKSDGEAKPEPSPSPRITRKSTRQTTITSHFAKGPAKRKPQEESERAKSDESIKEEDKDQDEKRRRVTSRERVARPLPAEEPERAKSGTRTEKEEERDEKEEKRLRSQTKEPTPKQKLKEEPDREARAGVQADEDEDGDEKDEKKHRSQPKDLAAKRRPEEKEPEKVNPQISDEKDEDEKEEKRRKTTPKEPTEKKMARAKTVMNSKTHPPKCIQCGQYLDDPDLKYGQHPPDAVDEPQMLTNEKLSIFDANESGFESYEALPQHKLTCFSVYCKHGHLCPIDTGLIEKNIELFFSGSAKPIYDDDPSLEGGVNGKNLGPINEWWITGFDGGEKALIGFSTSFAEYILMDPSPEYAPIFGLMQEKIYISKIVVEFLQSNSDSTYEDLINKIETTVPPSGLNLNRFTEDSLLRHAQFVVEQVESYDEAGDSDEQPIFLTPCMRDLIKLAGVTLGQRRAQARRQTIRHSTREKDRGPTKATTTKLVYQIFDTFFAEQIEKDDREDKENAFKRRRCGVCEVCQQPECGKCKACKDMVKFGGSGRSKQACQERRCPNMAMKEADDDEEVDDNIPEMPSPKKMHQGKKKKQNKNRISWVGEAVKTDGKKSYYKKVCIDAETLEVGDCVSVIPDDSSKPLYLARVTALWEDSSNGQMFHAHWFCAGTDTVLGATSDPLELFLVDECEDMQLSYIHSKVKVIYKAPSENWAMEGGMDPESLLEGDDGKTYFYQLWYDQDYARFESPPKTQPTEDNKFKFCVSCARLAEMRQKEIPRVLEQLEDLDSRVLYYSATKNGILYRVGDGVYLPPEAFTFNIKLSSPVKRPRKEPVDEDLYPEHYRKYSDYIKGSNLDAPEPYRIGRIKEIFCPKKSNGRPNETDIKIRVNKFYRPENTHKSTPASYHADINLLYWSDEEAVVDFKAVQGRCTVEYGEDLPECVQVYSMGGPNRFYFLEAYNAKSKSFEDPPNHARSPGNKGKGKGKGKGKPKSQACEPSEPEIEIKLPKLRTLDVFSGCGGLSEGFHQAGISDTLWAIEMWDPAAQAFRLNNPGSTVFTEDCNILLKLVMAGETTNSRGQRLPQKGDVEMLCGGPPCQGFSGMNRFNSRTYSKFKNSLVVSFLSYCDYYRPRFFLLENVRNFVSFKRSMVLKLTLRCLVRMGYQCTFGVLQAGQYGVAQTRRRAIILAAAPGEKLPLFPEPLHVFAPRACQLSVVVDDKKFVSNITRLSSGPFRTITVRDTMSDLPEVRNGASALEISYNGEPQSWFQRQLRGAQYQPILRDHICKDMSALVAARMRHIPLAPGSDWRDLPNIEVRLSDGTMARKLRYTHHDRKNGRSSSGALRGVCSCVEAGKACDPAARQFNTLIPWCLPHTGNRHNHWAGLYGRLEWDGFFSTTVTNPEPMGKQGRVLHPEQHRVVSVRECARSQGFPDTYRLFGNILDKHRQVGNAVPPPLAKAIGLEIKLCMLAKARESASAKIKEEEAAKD

Streptokinase A = target: T3, Streptokinase A (Streptococcus pyogenes serotype M1, UniProt P10520); experiment: viability-normalized secreted streptokinase activity reduction – plasminogen activation absorbance, OD405, dose response (AID 1914); type: functional, Streptococcus pyogenes M1 GAS;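 also: secreted streptokinase activity via plasminogen activation per viability signal from cell pellet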
T3 sequence (P10520 whole entry): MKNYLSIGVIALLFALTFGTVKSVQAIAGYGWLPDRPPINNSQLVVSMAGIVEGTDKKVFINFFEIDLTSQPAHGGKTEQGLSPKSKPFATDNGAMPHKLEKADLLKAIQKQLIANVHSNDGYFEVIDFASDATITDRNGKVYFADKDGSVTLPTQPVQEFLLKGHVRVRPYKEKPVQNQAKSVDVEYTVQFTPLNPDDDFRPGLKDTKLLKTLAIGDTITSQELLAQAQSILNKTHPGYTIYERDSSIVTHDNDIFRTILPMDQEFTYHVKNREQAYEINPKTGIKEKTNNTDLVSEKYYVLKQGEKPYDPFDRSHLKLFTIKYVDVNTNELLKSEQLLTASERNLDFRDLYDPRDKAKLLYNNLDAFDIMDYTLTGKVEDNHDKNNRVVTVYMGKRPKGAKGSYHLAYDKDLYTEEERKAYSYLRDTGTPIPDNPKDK

[7] = target: T2, Probable nicotinate-nucleotide adenylyltransferase; type: functional, Staphylococcus aureus subsp. aureus N315; conditions: read-out: IC50_Mean
[8] = cAMP pathway inhibition in counterscreen cell line – TR-FRET cAMP detection, counter-screen for MC4R biased antagonist project, dose response (AID 602305); type: functional, cell-based;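 also: U2OS cells stimulated with forskolin near its EC80 as the cAMP inducer; potency is for inhibition of forskolin-stimulated cAMP signaling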
Melanocortin receptor 4 = Melanocortin receptor 4 (Homo sapiens, UniProt P32245); experiment: inhibitors of MC4R cAMP signaling – cell-based, TR-FRET, biased antagonists, dose response (AID 602298); type: functional;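 also: antagonist potency against agonist-stimulated cAMP production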
Chain of Melanocortin receptor 4 (P32245 whole entry): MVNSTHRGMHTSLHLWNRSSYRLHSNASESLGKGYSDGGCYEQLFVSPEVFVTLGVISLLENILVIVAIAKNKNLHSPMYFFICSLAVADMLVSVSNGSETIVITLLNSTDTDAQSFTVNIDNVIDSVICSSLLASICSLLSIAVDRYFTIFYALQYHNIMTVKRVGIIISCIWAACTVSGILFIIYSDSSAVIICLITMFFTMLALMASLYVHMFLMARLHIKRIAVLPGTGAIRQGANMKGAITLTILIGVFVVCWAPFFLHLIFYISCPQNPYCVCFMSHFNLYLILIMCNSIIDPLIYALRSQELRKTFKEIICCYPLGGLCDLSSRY

[9] = non-specific 3'UTR reporter inhibition in Clone20-Shn3RL – cell-based, Renilla luciferase, cherry-picked, counter-screen for Shn3 inhibitor project, dose response (AID 624133); type: functional
[10] = reduction of Shn3 3'UTR-driven luciferase in osteoblasts – cell-based, Clone20 osteoblasts, firefly luciferase, cherry-picked, dose response (AID 624132); type: functional;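 also: firefly luciferase luminescence from reporter carrying the Shn3 3'UTR in osteoblasts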
[11] = loss of viability in HepG2 cells – cell-based, CellTiter-Glo, cherry-picked, cytotoxicity control for Shn3 inhibitor project, dose response (AID 624134); type: functional
cells = type: functional, cell-based; conditions: HEK-CNG
Galanin receptor type 3 = Galanin receptor type 3 (Homo sapiens, UniProt O60755); experiment: Fluorescence-based cell-based primary high throughput dose response assay to identify antagonists of the Galanin Receptor 3 (GalR3).; type: functional
Chain of Galanin receptor type 3 (O60755 whole entry): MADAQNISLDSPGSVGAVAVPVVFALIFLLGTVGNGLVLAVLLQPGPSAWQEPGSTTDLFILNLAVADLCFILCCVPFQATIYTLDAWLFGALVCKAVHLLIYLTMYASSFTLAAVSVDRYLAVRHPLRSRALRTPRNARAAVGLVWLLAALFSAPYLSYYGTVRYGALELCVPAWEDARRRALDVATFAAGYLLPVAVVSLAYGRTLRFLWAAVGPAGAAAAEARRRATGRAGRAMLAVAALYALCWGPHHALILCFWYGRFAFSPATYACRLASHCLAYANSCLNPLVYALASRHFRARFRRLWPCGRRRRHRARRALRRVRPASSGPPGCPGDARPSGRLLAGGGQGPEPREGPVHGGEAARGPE

Insulin-degrading enzyme [12] = target: T4, Insulin-degrading enzyme (Homo sapiens, UniProt P14735); experiment: cellular IDE activation of Abeta substrate cleavage – fluorescence polarization, HEK cells, dose response (AID 588439); type: functional, cell-based
T4 sequence (P14735 whole entry): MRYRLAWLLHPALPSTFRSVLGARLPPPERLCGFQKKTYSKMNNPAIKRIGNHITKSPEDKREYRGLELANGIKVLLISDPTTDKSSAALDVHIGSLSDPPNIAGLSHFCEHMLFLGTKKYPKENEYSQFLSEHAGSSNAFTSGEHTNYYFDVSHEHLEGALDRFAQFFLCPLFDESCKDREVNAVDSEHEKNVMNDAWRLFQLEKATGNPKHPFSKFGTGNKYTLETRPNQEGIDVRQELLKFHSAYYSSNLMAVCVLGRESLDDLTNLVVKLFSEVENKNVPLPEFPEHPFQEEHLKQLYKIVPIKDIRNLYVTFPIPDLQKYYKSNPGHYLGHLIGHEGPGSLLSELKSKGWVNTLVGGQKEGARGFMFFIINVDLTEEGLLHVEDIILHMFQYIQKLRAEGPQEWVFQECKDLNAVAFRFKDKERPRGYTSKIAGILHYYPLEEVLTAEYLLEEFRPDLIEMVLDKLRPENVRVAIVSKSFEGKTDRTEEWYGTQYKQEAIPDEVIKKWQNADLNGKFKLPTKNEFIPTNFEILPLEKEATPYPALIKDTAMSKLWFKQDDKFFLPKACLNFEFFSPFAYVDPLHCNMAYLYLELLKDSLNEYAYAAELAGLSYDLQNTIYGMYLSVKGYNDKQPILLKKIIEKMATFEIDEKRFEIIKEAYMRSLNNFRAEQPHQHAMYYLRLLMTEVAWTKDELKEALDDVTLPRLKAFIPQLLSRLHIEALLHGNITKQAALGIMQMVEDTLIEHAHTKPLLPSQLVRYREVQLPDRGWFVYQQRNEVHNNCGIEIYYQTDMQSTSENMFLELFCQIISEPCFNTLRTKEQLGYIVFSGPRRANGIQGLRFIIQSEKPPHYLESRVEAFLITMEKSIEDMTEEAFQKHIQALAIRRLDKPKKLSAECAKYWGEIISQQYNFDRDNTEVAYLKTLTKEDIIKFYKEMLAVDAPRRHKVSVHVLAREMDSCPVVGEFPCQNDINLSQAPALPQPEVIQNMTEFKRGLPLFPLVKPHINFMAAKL

HEK293 [13] = experiment: membrane integrity loss in HEK cells – cell-based, fluorescence, cytotoxicity control for IDE activator project, dose response (AID 588440); type: functional; conditions: Homo sapiens;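 also: cytotoxicity by LDH release measuring loss of membrane integrity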
HEK293 [14] = experiment: optical interference in Abeta FP readout, dose response, artefact control for IDE activator project, biochemical, fluorescence polarization (AID 588442); type: functional, cell-based; conditions: Homo sapiens
Insulin-degrading enzyme [15] = target: T4, Insulin-degrading enzyme; experiment: recombinant IDE activation, cell-free – biochemical, fluorescence polarization, counter-screen for IDE activator project, dose response (AID 588681)
[16] = target: T5, High affinity choline transporter 1 (Homo sapiens, UniProt Q9GZV3); experiment: human choline transporter blockers, potency – cell-based, 10-point CRC, membrane potential dye, dose response (AID 588401); type: functional;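 also: membrane potential dye fluorescence of choline-evoked depolarization via CHT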
T5 sequence (Q9GZV3 whole entry): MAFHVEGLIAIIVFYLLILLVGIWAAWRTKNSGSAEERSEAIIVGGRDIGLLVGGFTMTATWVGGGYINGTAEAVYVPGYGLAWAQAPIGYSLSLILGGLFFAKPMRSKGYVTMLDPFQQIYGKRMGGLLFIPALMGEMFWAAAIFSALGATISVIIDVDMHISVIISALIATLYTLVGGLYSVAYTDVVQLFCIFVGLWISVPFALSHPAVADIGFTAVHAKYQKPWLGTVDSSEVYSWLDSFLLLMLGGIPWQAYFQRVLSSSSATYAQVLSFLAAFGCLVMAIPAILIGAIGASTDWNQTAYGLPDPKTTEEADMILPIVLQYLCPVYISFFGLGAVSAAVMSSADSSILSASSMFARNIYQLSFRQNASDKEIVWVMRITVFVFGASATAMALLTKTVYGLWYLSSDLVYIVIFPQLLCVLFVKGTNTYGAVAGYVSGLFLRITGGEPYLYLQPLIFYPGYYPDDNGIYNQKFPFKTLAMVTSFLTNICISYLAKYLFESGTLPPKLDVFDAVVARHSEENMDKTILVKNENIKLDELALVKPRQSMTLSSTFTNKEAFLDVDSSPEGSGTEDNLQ

Large T antigen = Large T antigen (Simian virus 40, UniProt P03070); type: functional, Betapolyomavirus macacae;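 also: Confirmatory-stage PubChem screen for compounds that inhibit SV40 T antigen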
Chain of Large T antigen (P03070 whole entry): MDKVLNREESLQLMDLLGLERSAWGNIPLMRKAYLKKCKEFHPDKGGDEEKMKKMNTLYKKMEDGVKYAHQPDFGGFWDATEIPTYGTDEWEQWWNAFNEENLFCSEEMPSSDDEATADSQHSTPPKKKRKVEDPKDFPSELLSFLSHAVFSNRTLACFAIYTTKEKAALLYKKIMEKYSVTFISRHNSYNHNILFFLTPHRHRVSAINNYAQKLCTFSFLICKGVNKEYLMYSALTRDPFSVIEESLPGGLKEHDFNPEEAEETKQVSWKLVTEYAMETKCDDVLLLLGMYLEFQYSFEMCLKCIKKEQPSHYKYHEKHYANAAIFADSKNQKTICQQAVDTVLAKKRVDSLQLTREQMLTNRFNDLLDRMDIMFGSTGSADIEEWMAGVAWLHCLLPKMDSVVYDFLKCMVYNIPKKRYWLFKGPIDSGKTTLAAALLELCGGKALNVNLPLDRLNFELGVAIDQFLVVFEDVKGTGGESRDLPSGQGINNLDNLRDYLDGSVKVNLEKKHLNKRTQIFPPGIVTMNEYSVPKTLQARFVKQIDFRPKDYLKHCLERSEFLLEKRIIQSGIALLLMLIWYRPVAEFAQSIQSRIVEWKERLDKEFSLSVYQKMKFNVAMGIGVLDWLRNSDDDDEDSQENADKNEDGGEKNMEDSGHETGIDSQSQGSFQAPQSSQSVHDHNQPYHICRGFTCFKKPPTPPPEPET

[17] = target: T5, High affinity choline transporter 1; experiment: human choline transporter blockers, potency – cell-based, 5-point CRC, membrane potential dye, dose response (AID 504840); type: functional
Aurora kinase B = Aurora kinase B (Homo sapiens, UniProt Q96GD4); type: functional
Chain of Aurora kinase B (Q96GD4 whole entry): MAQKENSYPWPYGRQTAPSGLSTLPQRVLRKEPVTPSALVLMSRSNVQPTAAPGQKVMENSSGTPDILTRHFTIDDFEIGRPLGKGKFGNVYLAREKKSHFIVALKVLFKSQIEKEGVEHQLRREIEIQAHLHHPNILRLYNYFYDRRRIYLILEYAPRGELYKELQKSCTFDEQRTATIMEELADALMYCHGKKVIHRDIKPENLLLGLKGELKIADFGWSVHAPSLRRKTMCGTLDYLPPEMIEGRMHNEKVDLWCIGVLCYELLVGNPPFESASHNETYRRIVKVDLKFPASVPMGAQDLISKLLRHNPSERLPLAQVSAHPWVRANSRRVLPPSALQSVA

Aurora kinase A = Aurora kinase A (Homo sapiens, UniProt O14965); type: functional;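 also: value from the Navigating the Kinome kinase panel profiling, panel entry STK6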
Chain of Aurora kinase A (O14965 whole entry): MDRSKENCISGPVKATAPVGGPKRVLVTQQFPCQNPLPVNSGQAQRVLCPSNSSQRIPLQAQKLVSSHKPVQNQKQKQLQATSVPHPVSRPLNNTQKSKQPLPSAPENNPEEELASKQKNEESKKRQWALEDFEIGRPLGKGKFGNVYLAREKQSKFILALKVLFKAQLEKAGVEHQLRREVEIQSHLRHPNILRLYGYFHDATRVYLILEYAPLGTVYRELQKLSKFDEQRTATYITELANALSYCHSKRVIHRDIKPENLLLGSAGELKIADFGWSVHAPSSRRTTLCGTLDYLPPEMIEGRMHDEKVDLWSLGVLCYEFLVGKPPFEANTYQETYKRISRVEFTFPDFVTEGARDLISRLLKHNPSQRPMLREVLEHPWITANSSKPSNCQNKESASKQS

[18] = target: 26S proteasome non-ATPase regulatory subunit 14 (Homo sapiens, UniProt O00487); experiment: inhibition of proteasome subunit RPN11 – biochemical, fluorescence polarization, uHTS hits, confirmation (AID 602368); type: functional
[19] = target: 72 kDa type IV collagenase (Homo sapiens, UniProt P08253); experiment: Dose Response validation of uHTS RPN11 inhibitor hits using a MMP-2 Fluorescence assay.; type: functional
Chain of 72 kDa type IV collagenase (P08253 whole entry): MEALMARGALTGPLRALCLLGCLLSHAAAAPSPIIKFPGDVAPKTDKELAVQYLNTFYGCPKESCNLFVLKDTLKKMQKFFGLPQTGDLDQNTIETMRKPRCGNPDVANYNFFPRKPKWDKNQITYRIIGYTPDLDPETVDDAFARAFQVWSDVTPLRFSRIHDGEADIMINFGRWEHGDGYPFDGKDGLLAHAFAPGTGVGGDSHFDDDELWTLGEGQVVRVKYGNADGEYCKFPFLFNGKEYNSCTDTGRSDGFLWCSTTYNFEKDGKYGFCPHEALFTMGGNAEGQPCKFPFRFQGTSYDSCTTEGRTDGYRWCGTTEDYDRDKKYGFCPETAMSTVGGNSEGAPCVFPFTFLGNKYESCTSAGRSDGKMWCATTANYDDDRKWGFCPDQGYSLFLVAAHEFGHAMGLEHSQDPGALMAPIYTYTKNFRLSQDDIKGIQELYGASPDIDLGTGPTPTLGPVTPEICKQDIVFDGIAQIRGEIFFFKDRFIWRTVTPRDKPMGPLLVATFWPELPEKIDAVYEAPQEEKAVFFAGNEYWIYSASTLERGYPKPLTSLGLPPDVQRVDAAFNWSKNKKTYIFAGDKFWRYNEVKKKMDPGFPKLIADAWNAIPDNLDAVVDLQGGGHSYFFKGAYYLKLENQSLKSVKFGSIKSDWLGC

Prothrombin = Prothrombin (Bos taurus, UniProt P00735); experiment: thrombin protease inhibitors – biochemical, fluorescence polarization, uHTS hits, dose response (AID 602369); type: functional
[20] = HIV-1 AD8 envelope cell-cell fusion blockers – cherry-pick, dose response (AID 652062); type: functional, cell-based;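 also: luciferase signal from cell-cell fusion driven by HIV-1 clade B AD8 Env; potency is for inhibitors of fusion seen as a drop in luminescence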
[21] = target: T6, Ubiquitin-conjugating enzyme E2 N (Homo sapiens, UniProt P61088); type: functional
T6 sequence (P61088 whole entry): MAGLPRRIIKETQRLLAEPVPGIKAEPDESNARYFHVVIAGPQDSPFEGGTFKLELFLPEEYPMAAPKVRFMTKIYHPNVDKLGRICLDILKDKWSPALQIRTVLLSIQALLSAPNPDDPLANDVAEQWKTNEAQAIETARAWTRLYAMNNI

[22] = target: T6, Ubiquitin-conjugating enzyme E2 N; type: functional; remark: listed apart in the source
Bcl-2-related protein A1 = target: T7, Bcl-2-related protein A1 (Mus musculus, UniProt Q07440); type: functional;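 also: confirmatory dose–response counterscreen on Bfl-1, used to check hits from a UBC13 polyubiquitin inhibitor campaign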
T7 sequence (Q07440 whole entry): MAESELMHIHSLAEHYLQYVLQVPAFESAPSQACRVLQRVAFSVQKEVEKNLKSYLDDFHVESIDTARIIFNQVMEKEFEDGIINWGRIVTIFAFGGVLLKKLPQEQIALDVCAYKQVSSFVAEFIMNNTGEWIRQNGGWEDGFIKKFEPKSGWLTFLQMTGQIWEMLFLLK

## O=S(=O)(Nc1c(S(=O)(=O)c2ccccc2)c2nc3ccccc3nc2n1C1CCCCC1)c1ccccc1
[1]
  EC50: 5.18 µM (active)
[2]
  IC50: 9.65 µM (active)
[3]
  IC50: > 66.6 µM (inactive)
Streptococcus
  EC50: 12 µM (active)
[4]
  IC50: 5.42 µM (active)
[5]
  AC50: 26.7 µM (active)
[6]
  IC50: 5.23 µM (active)
Streptokinase A
  EC50: 5.18 µM (active)
[7]
  IC50: 21.7 µM (active)

## O=C(CSc1c2c(nc3cc(Cl)ccc13)CCCC2)NCCN1CCOCC1
[8]
  IC50: > 64.6 µM (inactive)
Melanocortin receptor 4
  IC50: > 64.6 µM (inactive)

## CC(=O)OC[C@]12CC[C@H]3[C@@](C)(CC[C@H]4C(C)(C)CCC[C@]34C)[C@@H]1CC(C1=CC(=O)OC1O)O2 (some centres not stated)
[9]
  AC50: 3.12 µM (active)
[10]
  AC50: 0.634 µM (active)
[8]
  IC50: 55 µM (inactive)
[11]
  AC50: 8.6 µM (active)
cells
  EC50: > 29.9 µM (inactive)
Galanin receptor type 3
  IC50: > 1.11 µM (active)
Melanocortin receptor 4
  IC50: 15.2 µM (inactive)

## O=C1CC2(CCCC2)CC(=O)N1c1ccccc1
Insulin-degrading enzyme [12]
  EC50: > 54.7 µM (inactive)
HEK293 [13]
  IC50: > 89.1 µM (inactive)
HEK293 [14]
  EC50: > 55.9 µM (inactive)
Insulin-degrading enzyme [15]
  EC50: > 54.7 µM (inactive)

## CCOC(=O)c1c(N)ssc1=S
[16]
  IC50: 3.81 µM (active)
Large T antigen
  IC50: 95.5 µM (active)
[17]
  IC50: 8.48 µM (active)

## Nc1ncnc2sc3c(c12)-c1ccc(NC(=O)Nc2cccc(C(F)(F)F)c2)cc1CC3
Aurora kinase B
  Ki: 0.00126 µM (active)
Aurora kinase A
  Ki: 0.1 µM (active)

## Cc1ccccc1CN1C(=O)C(C)Sc2ccc(-c3ccco3)cc21 (configuration not stated)
[18]
  IC50: 36.2 µM (active)
[19]
  IC50: > 100 µM (inactive)
[4]
  IC50: 14.2 µM (active)
[7]
  IC50: 31.3 µM (active)
Prothrombin
  IC50: 43.3 µM (active)

## Cc1cc(Cl)c(S(=O)(=O)N2CCCC2)cc1OCC(=O)NC1CCCCC1
[20]
  AC50: 18.1 µM (active)
[16]
  IC50: 4.47 µM (active)
[17]
  IC50: 4.68 µM (active)

## C#CCOCCOCCOCCNc1nc(N2CCN(C(=O)CCCCCCCCCCNC(=O)[C@H](CCCCN)n3cc(C)nn3)CC2)nc(N2CCN(C(=O)CCCCCCCCCCNC(=O)[C@H](CO)n3cc(CCCSC)nn3)CC2)n1
Insulin-degrading enzyme [12]
  EC50: > 54.7 µM (inactive)
HEK293 [13]
  IC50: 9.88 µM (active)
[21]
  IC50: 6.96 µM (active)
HEK293 [14]
  EC50: > 55.9 µM (inactive)
[22]
  IC50: 4.05 µM (active)
Bcl-2-related protein A1
  IC50: > 20 µM (inactive)
Insulin-degrading enzyme [15]
  EC50: > 6.08 µM (active)
